The values below come from patent US5436263A, “Inhibitors of farnesyl-protein transferase” (Merck & Co., Inc., priority 1994, dated 1995).

The term IC50 denotes the concentration at which inhibition is half-maximal.

The structures appear in SMILES notation.

For one assay, the target named is T1, human FPTase (Homo sapiens, UniProt P49354+P49356).
T1 construct: made in house
As to the kind of experiment: In vitro inhibition of Ras farnesyl-protein transferase, human FPTase. It counts as biochemical. The note with it: 100 nM Ras-CVIM, 0.1% PEG 20,000, 10 μM ZnCl2, 30 min, concentration giving 50% inhibition of FPTase, read-out: Inhibition of RAS farnesylation IC50, human. How it is done: Inhibitory activity of the compounds of the instant invention may also be measured with an assay employing the recombinant human FPTase obtained as described by C. A. Omer et al. (Biochemistry, 32:5167-5176 (1993)).
Assays of farnesyl-protein transferase. Partially purified bovine FPTase and Ras peptides (Ras-CVLS, Ras-CVIM and RAS-CAIL) were prepared as described by Schaber et al. J. Biol. Chem. 265:14701-14704 (1990) and Gibbs et al. PNAS U.S.A. 86:6630-6634 (1989), respectively. Bovine FPTase was assayed in a volume of […] containing 100 mM N-(2-hydroxy ethyl) piperazine-N'-(2-ethane sulfonic acid) (HEPES), pH 7.4, 5 mM MgCl2, 5 mM dithiothreitol (DTT), […] [^3 H]-farnesyl diphosphate ([^3 H]-FPP; 740 CBq/mmol, New England Nuclear), 650 nM Ras-CVLS and 10 μg/ml FPTase at 31° C. for 60 min. Reactions were initiated with FPTase and stopped with 1 ml of 1.0M HCL in ethanol. Precipitates were collected onto filter-mats using a TomTec Mach H cell harvestor, washed with 100% ethanol, dried and counted in an LKB β-plate counter. The assay was linear with respect to both substrates, FPTase levels and time; less than 10 % of the [^3 H]-FPP was utilized during the reaction period. […] Percentage inhibition is measured by the amount of incorporation of farnesyl in the presence of the test compound when compared to the amount of incorporation in the absence of the test compound. […]

For the next assay, the target named is T2, bovine FPTase (Bos taurus, UniProt P29702+P49355).
T2 construct: Farnesyl-protein transferase (FPTase) from bovine brain; from tissue; host or cells: bovine brain
Description: In vitro inhibition of Ras farnesyl-protein transferase, partially purified bovine FPTase. The following applies: Ras-CVLS substrate, [3H]-FPP, pH 7.4, 31° C., 60 min, concentration giving 50% inhibition of FPTase, read-out: Inhibition of RAS farnesylation IC50, bovine. It counts as biochemical. How it is done: The intrinsic farnesyl-protein transferase (FPTase) activity of representative compounds of this invention was measured by the assay as described below:
Farnesyl-protein transferase (FPTase) from bovine brain was chromatographed on DEAE-Sephacel (Pharmacia, 0-0.8M NaCl gradient elution), N-octyl agarose (Sigma, 0-0.6M NaCl gradient elution), and a mono Q HPLC column (Pharmacia, 0-0.3M NaCl gradient). Ras-CVLS (Cys-Val-Leu-Ser) at 3.5 mM, […] [^3 H]FPP, and the indicated compounds were incubated with this partially purified enzyme preparation. The FPTase inhibition data presented below is a measurement of the ability of the test compound to inhibit Ras farnesylation in vitro.
Assays of farnesyl-protein transferase. Partially purified bovine FPTase and Ras peptides (Ras-CVLS, Ras-CVIM and RAS-CAIL) were prepared as described by Schaber et al. J. Biol. Chem. 265:14701-14704 (1990) and Gibbs et al. PNAS U.S.A. 86:6630-6634 (1989), respectively. […] Precipitates were collected onto filter-mats using a TomTec Mach H cell harvestor, washed with 100% ethanol, dried and counted in an LKB β-plate counter. […] Percentage inhibition is measured by the amount of incorporation of farnesyl in the presence of the test compound when compared to the amount of incorporation in the absence of the test compound.

For another assay, the system named is Ras farnesylation. The note with it: HMG-CoA reductase inhibitors, Hancock et al., Casey et al., Schafer et al.; cited from earlier work.

Take `COC(=O)C1=CC(CO)=COc2oc3cccc(O)c3c(=O)c21` [Compound 1, 7-hydroxy-3-(hydroxymethyl)-6-oxo-6H-oxepino[2,3-b][1]benzopyran-5-carboxylic acid methyl ester]: the IC50 is 2700 nM at human FPTase and 300 nM at bovine FPTase.
Regarding `COC(=O)C1=CC(COC(C)=O)=COc2oc3cccc(OC(C)=O)c3c(=O)c21` [Compound 2, 7-acetyloxy-3-[(acetyloxy)methyl]-6-oxo-6H-oxepino[2,3-b][1]benzopyran-5-carboxylic acid methyl ester], the IC50 at bovine FPTase amounted to 1000 nM.
For `CC[C@H](C)C(=O)O[C@H]1CCC=C2C=C[C@H](C)[C@H](CC[C@@H]3C[C@@H](O)CC(=O)O3)[C@H]21` [compactin], in the assay on Ras farnesylation, the “Inhibition of Ras farnesylation in vivo” value was “Inhibition of Ras farnesylation in vivo has been demonstrated”.
Regarding `CC[C@H](C)C(=O)O[C@H]1C[C@@H](C)C=C2C=C[C@H](C)[C@H](CC[C@@H]3C[C@@H](O)CC(=O)O3)[C@H]21` [lovastatin], the “Inhibition of Ras farnesylation in vivo” value with Ras farnesylation is listed as “Inhibition of Ras farnesylation in vivo has been demonstrated”.
